Measurements: patent publication US12403114B2, “Cannabinoid acid ester compositions and uses thereof” (EPM (IP), INC., priority 2019, dated 2025)

Experiments:
[1] = tested on: partial meniscectomy/ACL transection rat model of surgical induced osteoarthritis and pain induced incapacitance; assay: Weight bearing in rat meniscectomy model versus hyaluronate and corticosteroid, Example 6; type: in vivo
Experimental: Rats were allowed to acclimatize for 1 week, followed by assessment of their weight bearing preference using an incapacitance meter. Unilateral medical meniscectomy and anterior cruciate ligament […] (MMX/ACLT) surgery was performed on the right knee of a subject rat. Weight bearing preference was tested before and after surgery. After 2 weeks, treatments with both intra-articular (1) and. intra-peritoneal (6) administrations of EPM301 began in the EPM301 group. In the hyaluronate (HA) and corticosteroid (CS) groups, a single intra-articular injection was performed 2 weeks after model induction. Weight bearing preference was then assessed 4 and 7 days after the start of therapy.
Wistar Rats (HsdHan female rats 225-249 grams) were acquired from Envigo. The rats were evaluated using an incapacitance tester. They were tested pre-operation, one-week post-operation, two weeks post-operation, prior to injection, 4 and 7 days post injections.
EPM-301 was dissolved in a solution mixture of 1:1:18 EtOH:cremophor:seline to a final concentration of 3.5 mg/mL. Hyaluronic acid (Arthrease, 1% sodium hyaluronate) and Dexamethasone (kem Pharma, Venus, 72, Pol. Ind. Colom II, 08228 Terrassa, Barcelona) were acquired.
Intra-articular (i.a.) injection was carried out with 100 uL and intra-peritoneal (i.p.) injections were carried out with 150 uL. All were injected i.a. in the first day. EPM-301 was injected via i.p. administration on the first day, and for 5 additional days everyday via i.p. administration.
Student's t-test was performed at the last follow-up time to determine effect of the therapy as primary endpoint. The level of significance was 0.05 alpha. ANOVA was used to compare all time points, a post-hob analysis with the Scheffe all comparisons method was performed. Calculations were performed using the Analyze-it Excel add-on function.
The percentage of weight bearing was calculated as the amount of weight born (in grams) on the right hind limb divided by the amount of weight born on the left hind limb. This ratio was expressed as percentage weight bearing. Prior to operation the Rt/Lt weight bearing in both groups was similar. There were 4 animals in the EPM-301 treated group and 8 animals in each of the HA and CS treated groups, with a total of 20 tested subjects.

[2] = tested on: diet-induced obesity (DIO); assay: Diet-induced obese (DIO) mice on high-fat diet, metabolic profile; type: in vivo, C57Bl/6 mice
Source text: The experimental protocol used was approved by the Institutional Animal Care and Use Committee of the Hebrew University, which is an AAALAC International accredited institute. Male 6-week-old C57Bl/6 mice were obtained from Harlan Laboratories. Mice were maintained under a 12-h light/dark cycle and fed ad libitum. To generate diet-induced obesity, the mice were fed either a high-fat diet (HFD) (60% of calories from fat, 20% from protein, and 20% from carbohydrates; Research Diet, D12492) or a standard laboratory diet (STD, 14% fat, 24% protein, 62% carbohydrates; NIH-31 rodent diet) for 14 weeks.
HFD-fed obese mice received vehicle (1% Tween80, 4% DMSO, 95% Saline) or CBDA-ME daily for 28 days by intraperitoneal (ip) injections of 40 mg/kg. Age-matched control mice on STD received vehicle daily. Body weight and food intake were monitored daily. Total body fat and lean masses were determined by EchoMRI-100H™ (Echo Medical Systems LLC, Houston, Tex., USA). 24 h urine was collected one week before euthanasia using mouse metabolic cages (CCS2000 Chiller System, Hatteras Instruments, NC, USA). At weeks 20, mice were euthanized by a cervical dislocation under deep anesthesia, the kidneys, liver, fat pads, and muscles were removed and weighed, and samples were either snap-frozen or fixed in buffered 4% formalin. Trunk blood was collected for determining the biochemical parameters.
The experimental protocol used Metabolic profile of the mice was assessed by using the Promethion High-Definition Behavioral Phenotyping System (Sable Instruments, Inc., Las Vegas, Nev., USA). Data acquisition and instrument control were performed using MetaScreen software version 2.2.18.0, and the obtained raw data were processed using ExpeData version 1.8.4 using an analysis script detailing all aspects of data transformation. Mice with free access to food and water were subjected to a standard 12 h light/12 h dark cycle, which consisted of a 48 h acclimation period followed by 24 h of sampling. Respiratory gases were measured by using the GA-3 gas analyzer (Sable Systems, Inc., Las Vegas, Nev., USA) using a pull-mode, negative-pressure system. Air flow was measured and controlled by FR-8 (Sable Systems, Inc., Las Vegas, Nev., USA), with a set flow rate of 2000 mL/min. Water vapor was continuously measured and its dilution effect on O2 and CO2 was mathematically compensated. Effective mass was calculated by [body mass]^0.75. Fat oxidation (FO) and carbohydrate oxidation (CHO) were calculated as FO=1.69×VO2−1.69×VCO2 and CHO=4.57×VCO2−3.23×VO2 and expressed as g/d/kg^eff.Mass.
Locomotor activity was quantified by the number of disruptions of infrared XYZ beam arrays with a beam spacing of 0.25 cm in the Promethion High-Definition Behavioral Phenotyping System (Sable Instruments, Inc., Las Vegas, Nev., USA).
Mice that fasted overnight were injected with glucose (1.5 g/kg, ip), followed by a tail blood collection at 0, 15, 30, 45, 60, 90, and 120 minutes. Blood glucose levels were determined using the Elite glucometer (Bayer, Pittsburgh, Pa.).
Serum and urine levels of creatinine as well as serum levels of cholesterol, triglycerides (TG), high-density lipoprotein (HDL), low-density lipoprotein (LDL), alanine aminotransferase (ALT), aspartate aminotransferase (AST), and alkaline phosphatase (ALP) were determined using the Cobas C-111 chemistry analyzer (Roche, Switzerland) […]. Creatinine clearance was calculated using urine and serum creatinine levels (CCr mL/h=Urine creatinine mg/dL×Urine volume/Serum creatinine mg/dL×24 hrs). Fasting blood glucose was measured using the Elite glucometer (Bayer, Pittsburgh, Pa.).
Liver tissues were extracted as described previously (Tam, J., et al., Cell Metab, 2012. 16(2): p. 167-79) and its triglyceride content was determined using the EnzyChrom™ Triglyceride Assay Kit (BioAssay Systems). […]

[3] = HFD mice, 40 mg/kg/d ip for 28 days
[4] = HFD mice, 40 mg/kg/d ip for 28 days (FIG. 30)
[5] = obesity related hepatocellular injury (FIG. 28)

## C=C(C)[C@@H]1CCC(C)=CC1c1c(O)cc(CCCCC)c(C(=O)OC)c1O (stereo partly drawn) [EPM-301, cannabidiolic acid methyl ester]
[1]; following injections, EPM-301 i.a. once plus i.p. 6 days, HA and CS single i.a. injection
  Rt limb weight bearing: 99.1%
[1]; immediately prior to injection, two weeks following model induction (baseline before treatment)
  weight bearing: 56.6%
[2]; [3]
  HDL-cholesterol: without changing
  LDL-cholesterol: reduced
[2]; HFD mice, 40 mg/kg/d ip for 28 days (FIG. 23A)
  overweight (body weight): significantly reduced
[2]; HFD mice, 40 mg/kg/d ip for 28 days (FIG. 23B)
  adiposity (fat mass): significantly reduced
[2]; HFD mice, 40 mg/kg/d ip for 28 days (FIG. 23C)
  lean body mass: without affecting
[2]; HFD mice, 40 mg/kg/d ip for 28 days (FIG. 23D)
  leptin levels: reduction
[2]; HFD mice, 40 mg/kg/d ip for 28 days (FIG. 25B)
  total ambulatory activity: without changing
[2]; HFD mice, 40 mg/kg/d ip for 28 days (FIG. 26A)
  HFD-induced hypertriglyceridemia (serum triglycerides): significantly reduced
[2]; HFD mice, 40 mg/kg/d ip for 28 days (FIG. 26B)
  HFD-induced hypercholesterinemia (serum cholesterol): significantly reduced
[2]; HFD mice, 40 mg/kg/d ip for 28 days (FIG. 26C)
  ratio between HDL to LDL: Increased
[2]; HFD mice, 40 mg/kg/d ip for 28 days (FIG. 27A)
  fasting glucose levels: no change
[2]; HFD mice, 40 mg/kg/d ip for 28 days (FIG. 29A)
  HFD-induced hepatic steatosis: elevated hepatic triglyceride levels: completely attenuated
[2]; HFD mice, 40 mg/kg/d ip for 28 days (FIG. 29B)
  HFD-induced hepatic steatosis: increased fat vacuoles in the liver: completely attenuated
[2]; [4]
  HFD-induced kidney hypofiltration (creatinine clearance): completely normalized
  reduction in urine excretion-to-water consumption ratio: completely normalized
[2]; glucose 1.5 g/kg ip after overnight fast (FIG. 27B-27D)
  glucose intolerance (ip glucose tolerance test): significant reduction
[2]; indirect calorimetry, similar to lean mice on STD (FIG. 24A)
  utilization of fat (fat oxidation): downregulate
[2]; indirect calorimetry, similar to lean mice on STD (FIG. 24B)
  carbohydrate oxidation: upregulate
[2]; [5]
  serum levels of ALP: reduction
  serum levels of ALT: reduction
  serum levels of AST: reduction
[2]; similar to STD-fed animals (FIG. 25A)
  ability to run on a wheel: increased ability
